Measured values taken from paper PMC6917776, “Discovery of a chemical probe for PRDM9” (Nature Communications, 2019).

Molecular target: T1, PRDM9 (amino acids: 195–415) (Homo sapiens, UniProt Q9NQV7)
T1 construct: PRDM9 (amino acids: 195–415)
T1 sequence (Q9NQV7 195-415): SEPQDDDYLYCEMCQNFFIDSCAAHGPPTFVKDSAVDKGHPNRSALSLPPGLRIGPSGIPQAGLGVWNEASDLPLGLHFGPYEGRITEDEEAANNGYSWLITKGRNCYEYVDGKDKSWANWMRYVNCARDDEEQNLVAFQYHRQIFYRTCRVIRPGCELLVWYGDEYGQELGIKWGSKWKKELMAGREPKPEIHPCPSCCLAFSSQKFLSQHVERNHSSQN
Test: PRDM9 methyltransferase activity assay (3H-SAM scintillation proximity assay)
Assay type: biochemical
Settings: PRDM9, Exp1, Exp2
Description: Methyltransferase activity assays for PRDM9 (amino acids: 195–415) were performed by monitoring the incorporation of tritium-labeled methyl group from ^3H-SAM to H3 (1–25) peptide using scintillation proximity assay (SPA). The enzymatic reactions were performed at 23 °C with 30 min incubation in 20 mM Tris-HCl (pH 7.5), 5 mM DTT, 0.01% Triton X-100 and 1% DMSO containing 71 μM of SAM (5 μM of ^3H-SAM), 4 μM of biotinylated H3 (1–25) peptide and 5 nM of PRDM9. For PRDM7, reactions were performed at 23 °C with 90 min incubation in 20 mM BTP pH 9.0, 5 mM DTT, 0.01% Triton X-100 and 1% DMSO containing 900 μM of SAM (5 μM of ^3H-SAM), 4 μM of biotinylated H3 (1–25) peptide and 100 nM of enzyme. […] To stop the reactions, 10 μL of 7.5 M guanidine hydrochloride was added to 10 μL of reaction mixture, followed by 60 μL of buffer (20 mM Tris, pH 8.0), mixed, and transferred to a 384-well streptavidin coated Flash-plate. After mixing, the mixtures in Flash-plate were incubated for 2 h, and the CPM counts were measured using TopCount plate reader. All enzymatic reactions were performed in triplicate, and IC50 values were determined by fitting the data to Four Parameter Logistic equation using the GraphPad Prism software.

## COc1cc(OC)cc(-c2noc(N3CCN(C)C4(CCN(c5ccccc5)CC4)C3)n2)c1 [MRK-740 -NC]
1µM compound
  activity at 1 µM: 97%
1µM compound, 1 µM
  Activity %: 90%
10µM compound
  activity at 10 µM: 96%
10µM compound, 10 µM
  Activity %: 93%
